Results as given in patent publication US20100256069A1, “TARGETED INDUCTION OF AGGREGATION OF PROTEINS WITH CROSS BETA STRUCTURES” (VIB VZM, priority 2007, published 2010).
The star is where a group is joined. Biotin = O=C1N[C@H]2[C@H](CS[C@H]2CCCCC(=O)*)N1

Target: streptavidin-HRP fusion protein (Streptomyces avidinii, UniProt P22629)
Assay: Depletion of streptavidin-HRP from solution by co-aggregation (residual HRP activity in supernatant, TMB readout)
Settings: aggregator 1 μM, streptavidin-HRP diluted 1:20,000 in PBS, overnight, room temperature, 750 rpm; FIG. 1
Description: In order to show depletion between the fusion protein HRP-streptavidin from solution due to co-aggregation with the aggregator, we co-incubated the aggregator with the streptavidin-HRP fusion protein. […] To this end, a streptavidin-HRP stock solution (AbD Serotec, product number 710005) was diluted 1:20,000 in PBS and incubated with the aggregator at a final concentration of 1 μM. The samples were incubated overnight with agitation at 750 rpm at room temperature. A control sample consisting of the fusion protein SA-HRP alone in identical buffer (PBS plus 10% DMSO) was included. […] After overnight incubation, co-aggregated material was removed from the sample by centrifugation for 15 min at 17,000 g in a cooled bench top microfuge at 10° C. Of the supernatant, 10 μL was recovered and added in a 96 well plate (Falcon, 353072) to 90 μL of TMB solution. This mixture was incubated at room temperature for 1 minute, after which the colorimetric reaction was arrested by the addition of 100 μL of 2 M H2SO4. The absorbance of the resulting yellow product was measured at OD450nm using an Ultra Microplate Reader (BioTEK, ELx808IU).

Sequence of streptavidin-HRP fusion protein (P22629 25-183): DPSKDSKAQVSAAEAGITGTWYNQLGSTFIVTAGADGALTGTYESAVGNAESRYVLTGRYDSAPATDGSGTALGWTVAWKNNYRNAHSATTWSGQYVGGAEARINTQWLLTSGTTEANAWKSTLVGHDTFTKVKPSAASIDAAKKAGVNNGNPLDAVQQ
Sequence of streptavidin-HRP fusion protein (P00433 31-338, further chain): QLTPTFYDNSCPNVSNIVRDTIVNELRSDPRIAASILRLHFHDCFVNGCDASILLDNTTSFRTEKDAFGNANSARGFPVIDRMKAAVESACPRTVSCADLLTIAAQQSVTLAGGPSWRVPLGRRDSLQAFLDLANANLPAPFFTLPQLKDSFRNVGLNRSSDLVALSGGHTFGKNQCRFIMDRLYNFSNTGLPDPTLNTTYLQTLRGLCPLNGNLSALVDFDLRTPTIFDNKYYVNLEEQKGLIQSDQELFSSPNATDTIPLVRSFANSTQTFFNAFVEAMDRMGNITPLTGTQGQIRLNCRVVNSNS

## Biotin-ALAVVLQ-NH2
  residual percentage HRP activity in the supernatant after removal of the co-aggregates by centrifugation: clearly removes the enzyme from the soluble fraction
